Read-outs that look alike come from different tables or passages of the source.
What was measured:
Type in all cases: cell-based
[1] = molecular target: T1, 168 GPCRs (Homo sapiens, UniProt P0DMS8)
T1 construct: host or cells: PathHunter cell lines
T1 sequence (P0DMS8 1-318): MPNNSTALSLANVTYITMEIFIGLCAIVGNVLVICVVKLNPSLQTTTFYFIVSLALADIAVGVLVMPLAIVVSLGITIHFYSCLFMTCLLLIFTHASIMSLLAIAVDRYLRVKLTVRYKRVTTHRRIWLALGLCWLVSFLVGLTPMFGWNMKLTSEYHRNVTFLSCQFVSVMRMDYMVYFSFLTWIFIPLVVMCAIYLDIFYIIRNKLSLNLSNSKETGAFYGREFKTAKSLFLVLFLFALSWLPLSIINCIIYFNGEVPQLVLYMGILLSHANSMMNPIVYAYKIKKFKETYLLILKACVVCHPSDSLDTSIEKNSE

[2] = molecular target: T2, 168 GPCRs (Homo sapiens, UniProt P11229)
T2 construct: host or cells: PathHunter cell lines
T2 sequence (P11229 1-460): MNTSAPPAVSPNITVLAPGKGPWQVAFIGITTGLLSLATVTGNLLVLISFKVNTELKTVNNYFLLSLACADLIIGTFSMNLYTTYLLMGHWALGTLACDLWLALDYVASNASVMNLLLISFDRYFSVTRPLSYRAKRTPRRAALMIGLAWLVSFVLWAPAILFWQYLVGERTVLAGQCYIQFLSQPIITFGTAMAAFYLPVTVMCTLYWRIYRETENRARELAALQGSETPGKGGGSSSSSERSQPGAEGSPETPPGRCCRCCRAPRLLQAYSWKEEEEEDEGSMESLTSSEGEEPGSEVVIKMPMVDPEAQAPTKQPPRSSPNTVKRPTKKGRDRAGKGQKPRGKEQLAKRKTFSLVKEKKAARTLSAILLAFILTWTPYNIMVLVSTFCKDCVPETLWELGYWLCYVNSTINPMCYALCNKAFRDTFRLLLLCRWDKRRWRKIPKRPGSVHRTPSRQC

[3] = molecular target: T3, 168 GPCRs (Homo sapiens, UniProt P18825); details: ADRA2C
T3 construct: host or cells: PathHunter cell lines
T3 sequence (P18825 1-462): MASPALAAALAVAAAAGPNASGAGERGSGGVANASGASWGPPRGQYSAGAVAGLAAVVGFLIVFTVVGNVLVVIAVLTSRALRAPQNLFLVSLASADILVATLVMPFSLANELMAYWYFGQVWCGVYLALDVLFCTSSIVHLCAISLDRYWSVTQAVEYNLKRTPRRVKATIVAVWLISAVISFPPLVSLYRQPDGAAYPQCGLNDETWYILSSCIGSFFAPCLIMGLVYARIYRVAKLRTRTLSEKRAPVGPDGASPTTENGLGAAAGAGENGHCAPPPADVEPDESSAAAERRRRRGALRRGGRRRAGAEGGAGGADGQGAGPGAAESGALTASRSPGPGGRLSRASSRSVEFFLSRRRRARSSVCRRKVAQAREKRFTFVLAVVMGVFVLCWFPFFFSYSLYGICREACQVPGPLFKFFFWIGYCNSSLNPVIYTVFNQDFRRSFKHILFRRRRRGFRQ

[4] = molecular target: T4, 168 GPCRs (Homo sapiens, UniProt P41587); details: VIPR2
T4 construct: host or cells: PathHunter cell lines
T4 sequence (P41587 24-438): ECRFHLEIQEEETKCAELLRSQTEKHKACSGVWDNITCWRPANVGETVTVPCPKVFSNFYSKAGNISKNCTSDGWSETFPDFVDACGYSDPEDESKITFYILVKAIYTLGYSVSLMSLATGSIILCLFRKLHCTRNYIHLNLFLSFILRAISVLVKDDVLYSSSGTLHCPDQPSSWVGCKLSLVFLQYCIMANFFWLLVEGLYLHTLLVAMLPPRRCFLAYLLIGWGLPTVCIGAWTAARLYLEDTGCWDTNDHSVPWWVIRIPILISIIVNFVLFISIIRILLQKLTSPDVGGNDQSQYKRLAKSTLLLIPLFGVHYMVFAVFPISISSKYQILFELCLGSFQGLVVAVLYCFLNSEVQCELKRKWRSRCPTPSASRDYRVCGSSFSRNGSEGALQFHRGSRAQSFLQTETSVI

[5] = molecular target: T5, 168 GPCRs (Homo sapiens, UniProt Q96LB2)
T5 construct: host or cells: PathHunter cell lines
T5 sequence (Q96LB2 whole entry): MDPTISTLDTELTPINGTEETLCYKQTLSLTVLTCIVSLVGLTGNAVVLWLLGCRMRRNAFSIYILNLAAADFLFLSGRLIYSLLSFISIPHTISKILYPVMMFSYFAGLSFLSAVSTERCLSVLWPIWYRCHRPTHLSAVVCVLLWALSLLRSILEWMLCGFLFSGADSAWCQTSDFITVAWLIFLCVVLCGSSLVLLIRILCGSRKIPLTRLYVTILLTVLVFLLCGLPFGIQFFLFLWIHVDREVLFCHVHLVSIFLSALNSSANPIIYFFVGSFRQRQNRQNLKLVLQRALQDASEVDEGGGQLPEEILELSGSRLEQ

| Structure (SMILES) | % Agonist Activity ([1]; ADORA3, 1 uM) | % Antagonist Activity ([1]; ADORA3, 1 uM) | % Agonist Activity ([1]; ADORA3, 10 uM) | % Antagonist Activity ([1]; ADORA3, 10 uM) | % Agonist Activity ([2]; CHRM1, 1 uM) | % Antagonist Activity ([2]; CHRM1, 1 uM) | % Agonist Activity ([2]; CHRM1, 10 uM) | % Antagonist Activity ([2]; CHRM1, 10 uM) | % Agonist Activity ([3]; 1 uM) | % Antagonist Activity ([3]; 1 uM) | % Agonist Activity ([3]; 10 uM) | % Antagonist Activity ([3]; 10 uM) | % Agonist Activity ([4]; Conc 1 uM) | % Antagonist Activity ([4]; Conc 1 uM) | % Agonist Activity ([4]; Conc 10 uM) | % Antagonist Activity ([4]; Conc 10 uM) | % Agonist Activity ([5]; MRGPRX1, 1 uM) | % Antagonist Activity ([5]; MRGPRX1, 1 uM) | % Agonist Activity ([5]; MRGPRX1, 10 uM) | % Antagonist Activity ([5]; MRGPRX1, 10 uM) |
| --- | --- | --- | --- | --- | --- | --- | --- | --- | --- | --- | --- | --- | --- | --- | --- | --- | --- | --- | --- | --- |
| CNC(C)Cc1ccc2c(c1)OCO2 (stereo not shown) [MDMA, 3,4-Methylenedioxy methamphetamine, reference compound] | 0.7% | -15.4% | 0.6% | -11.5% | 0.2% | 12.1% | 0.7% | 0.1% | 3.9% | 16.4% | 6.9% | 38.1% | -1.6% | -1.1% | -0.7% | 3.1% | 0.2% | 5.1% | -0.4% | 7.6% |
| CNC(C)C(=O)c1ccc2c(c1)OCO2 (stereo not shown) [methylone] | -4.5% | 11.3% | -5.3% | 7.7% | -9.1% | 15.8% | -8.5% | 2% | -2.5% | -4.3% | 0.1% | 17.6% | -0.4% | -1.5% | -0.3% | -2.6% | -1.7% | -6.5% | -1.5% | -10.2% |
